The structures appear in SMILES notation. Converted amounts (≈) assume the structure as drawn.

For series [1] the following is noted: cited from earlier work.
A short description of series [2]: Acute oral toxicity (LD50) in rats. Type of series: in vivo, rat.
For series [3] the following is noted: vapor phase, estimated, cited from earlier work.
Series [4] has as its target cannabinoid receptor type 1 (CB1) (Homo sapiens, UniProt P21554). Conditions: cited from earlier work.
Series [5] addresses peripheral cannabinoid receptor type 2 (CB2) (Homo sapiens, UniProt P34972). The following applies: cited from earlier work.
The conditions of series [6]: crystalline form at −20° C.; cited from earlier work.
For series [7] the following is noted: cited from earlier work. This is another data set of the same source.

Chain of cannabinoid receptor type 1 (CB1) (P21554 whole entry, species assumed): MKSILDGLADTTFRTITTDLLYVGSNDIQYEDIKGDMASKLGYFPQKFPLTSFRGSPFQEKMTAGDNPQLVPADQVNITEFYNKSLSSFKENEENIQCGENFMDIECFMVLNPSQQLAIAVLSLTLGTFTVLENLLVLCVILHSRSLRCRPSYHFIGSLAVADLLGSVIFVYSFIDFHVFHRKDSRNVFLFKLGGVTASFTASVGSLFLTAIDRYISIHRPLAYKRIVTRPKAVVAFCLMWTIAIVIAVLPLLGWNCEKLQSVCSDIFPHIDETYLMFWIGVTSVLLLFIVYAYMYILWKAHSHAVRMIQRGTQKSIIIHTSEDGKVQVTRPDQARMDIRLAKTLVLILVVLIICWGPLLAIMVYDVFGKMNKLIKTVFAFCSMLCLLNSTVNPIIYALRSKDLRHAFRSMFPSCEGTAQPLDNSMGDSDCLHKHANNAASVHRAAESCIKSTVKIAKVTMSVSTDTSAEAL
Chain of peripheral cannabinoid receptor type 2 (CB2) (P34972 whole entry, species assumed): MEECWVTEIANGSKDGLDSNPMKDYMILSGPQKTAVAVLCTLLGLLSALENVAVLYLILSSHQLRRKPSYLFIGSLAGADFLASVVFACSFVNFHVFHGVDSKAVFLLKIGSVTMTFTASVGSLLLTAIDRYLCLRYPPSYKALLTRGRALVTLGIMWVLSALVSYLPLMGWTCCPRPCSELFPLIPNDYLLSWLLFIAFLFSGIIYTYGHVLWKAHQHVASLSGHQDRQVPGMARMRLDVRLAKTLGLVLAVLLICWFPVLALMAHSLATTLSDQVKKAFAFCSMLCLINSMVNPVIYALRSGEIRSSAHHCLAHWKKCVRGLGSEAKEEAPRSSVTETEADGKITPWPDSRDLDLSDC

On to `CCO` [ethyl (grain) alcohol], for which the “acute oral toxicity (LD50) in rats” value in series [1] (rat) is listed as “about 7060 mg/kg”.

`OCC(O)CO` [Vegetable glycerin, glycerol]: the “LD50 oral rat dosage” value in series [1] (MSDS) was 12,600 milligrams per kilogram of body weight. Further, the “LD50 oral rat dosage converted per pound” value in series [2] (conversion of the rat oral LD50) was “approximately 5.7 grams per pound of body weight”. Moreover, the “LD50 oral rat dosage converted for a 180 pound male” value in series [2] (for a 180 pound male) amounted to 36 ounces.

For `C=CC(=C)CCC=C(C)C` [myrcene, beta-myrcene], the “half-life in air, reaction with nitrate radicals” value in series [3] (nitrate radicals) was 4 min. Besides, the “half-life in air, reaction with ozone” value in series [3] (ozone) is 34 min. The “half-life in air, reaction with hydroxyl radicals” value in series [3] (photochemically-produced hydroxyl radicals) is 108 min.

Consider `CCCCCC(C)(C)c1ccc([C@H]2CCC[C@@H](O)C2)c(O)c1` (relative stereo) [cp 47,497-C6-homolog, cis-5-(1,1 dimethylhexyl)-2-(3-hydroxycyclohexyl)-phenol], for which the “affinity for CB1” value in series [4] is given as “has affinity”. Also, the “affinity for CB2” value in series [5] is recorded as “has affinity”. Further, in series [6], the “long term storage stability” value was “stable for at least two years”. For the same molecule, in series [7] (DMF), the “solubility in DMF” value is listed as “approximately 10 mg/ml”. In addition, in series [7] (DMSO), the “solubility in DMSO” value was about 15 mg/mL (≈ 49.3 mM). In addition, in series [7] (aqueous solutions), the “solubility in aqueous solutions” value is recorded as “sparingly soluble”. Besides, in series [7] (ethanol), the solubility in ethanol entry was “approximately 10 mg/ml”. The solubility in methanol result in series [7] (methanol) was “approximately 12.5 mg/ml”.

These data come from US11369655B2, “Healthful supplements” (priority 2015, dated 2022).
